The text below walks through data of patent publication US20170088601A1, “CD133 EPITOPES” (CEDARS-SINAI MEDICAL CENTER, priority 2008, published 2017).

A value given as a limit tells only on which side of the number the result lay.

The target in assay [1] is T1, HLA-A2 molecules on T2 cells (Homo sapiens, UniProt P04439, D140Y/D185E/D98H/E176V/E277Q/G131W/G231S/I119V/I121R/I166T/I218V/L300P/L318F/N151K/N90K/P208A/P217A/Q86G/Q94H/R138H/R169H/T345S).
T1 construct: mean fluorescence of peptide preincubated T2 cells; endogenous in cells; host or cells: T2 cells
In words: Binding of mouse CD133 peptide to HLA-A2 on T2 cells (BB7.2 mAb, flow cytometry). Particulars: 0 μM, 10 μM or 100 μM peptide overnight. As for the experimental part:
The mouse counterpart of SEQ ID NO:1, […] (SEQ ID NO:11) also bound to HLA-A2, despite having only two amino acid residues in common. T2 cells were incubated overnight with 0 μM, 10 μM, or 100 μM of SEQ ID NO:11. The cells were then incubated with Brefeldin A (Sigma, St. Louis, Mo.) at 10 μg/ml for 1 hour, washed, incubated at 37° C. in the presence of Brefeldin A ([…]), and then stained with BB7.2 mAb. Fluorescence intensity was measured by flow cytometry.

In assay [2] the test system is HLA-A2 and CD133 positive cancer stem cells (CSC4). The assay can be described thus: IFN-γ ELISA of peptide-stimulated CTLs against cancer stem cells. Format: cell-based, human. As to conditions: ELISA of supernatant. The method, then:
(§1) The binding of the peptide-primed CTLs to HLA-A2 positive human cells was also tested. To generate dendritic cells, the plastic adherent cells from PBMCs were cultured in AIM-V medium supplemented with recombinant human GM-CSF and recombinant human IL-4 at 37° C. in a humidified incubator with 5% CO2. Six days later, the immature dendritic cells were stimulated with recombinant human TNF-alpha for maturation. Mature dendritic cells were then harvested on day 8, resuspended in PBS at 1×10^6/mL with the indicated peptides (2 μg/mL), and incubated for 2 hours at 37° C. Autologous PBMCs (2×10^6 per well) were cocultured with 2×10^5 per well peptide-pulsed dendritic cells in 2 mL/well of AIM-V medium supplemented with 5% human AB serum and 10 units/mL rhIL-7 (Cell Sciences) in each well of 24-well tissue culture plates.
(§2) On the next day and then every 3 days thereafter, 300 IU/ml of IL-2 was added to the medium. On day 7, lymphocytes were restimulated with autologous dendritic cells in AIM-V medium supplemented with 5% human AB serum, rhIL-2, and rhIL-7 (10 units/mL each). To generate peptide-specific CTLs, CD8 (+) T cells were isolated from healthy donors, then stimulated by autologous DC pulsed with peptide. After three cycle stimulations, these CTLs could efficiently recognize both HLA-A2 and CD133 positive cancer stem cells, as measured by amount of IFN-γ (pg/ml) in supernatant detected by ELISA (Table 2). However, they could not recognize the CD133 positive normal neural stem cells due to their absence of MHC expression.
(In general: In an ELISA, binding on a coated surface is turned into a signal by an enzyme label.)

In the next assay the test system is T2 cells. The assay can be described thus: IFN-γ ELISA of peptide-stimulated CTLs against peptide-pulsed T2 cells. It counts as cell-based, human. Particulars: ELISA of supernatant. The method, then: as §1, §2
In assay [3] the target is T2, HLA-A2 molecules (HLA-A*0201) on T2 cells (Homo sapiens, UniProt P04439, D140Y/D185E/D98H/E176V/E277Q/G131W/G231S/I119V/I121R/I166T/I218V/L300P/L318F/N151K/N90K/P208A/P217A/Q86G/Q94H/R138H/R169H/T345S).
T2 construct: mean fluorescence of peptide preincubated T2 cells; endogenous in cells; host or cells: T2 cells
In words: Binding of peptides to HLA-A2 and stability of HLA-A*0201/peptide complexes on T2 cells (BB7.2 mAb staining). As for the experimental part: The cells were then incubated with Brefeldin A (Sigma, St. Louis, Mo.) at 10 μg/ml for 1 hour, washed, incubated at 37° C. for 0, 3, or 6 hours in the presence of Brefeldin A (0.5 μg/ml), and then stained with BB7.2 mAb. […] DC50 was defined as the time required for the loss of 50% of the HLA-A*0201/peptide complexes stabilized at t=0.

Assay [4] concerns CD8 (+) T cells from healthy donors. In words: HLA-A*0201/peptide tetramer staining of peptide-induced CTLs, flow cytometry. Format: cell-based, human. As for the experimental part:
To generate peptide-specific CTLs, CD8 (+) T cells were isolated from healthy donors, then stimulated by autologous DC pulsed with peptide. Specific T cells were generated after PBMCs were stimulated by autologous DC pulsed with irradiated, apoptotic cancer stem cells (CSCs). Phycoerythrin-conjugated HLA-A*0201/peptide tetramers were synthesized. The cells were stained with tetramers (5 ng/ml) in PBS+0.5% human AB serum for 1 hour at room temperature, washed once in the same buffer, stained with anti-human CD8-FITC (BD Biosciences) mAbs for 30 minutes at 4° C. followed by flow cytometry analysis.

For the sequence MLLQVSHYL (Mus Musculus) [SEQ ID NO:11], the “Cell fluorescence (binding to HLA-A2)” value in assay [1] is “increased in a dose-dependent manner”.

For the sequence FLLPALIFAV (Homo sapien) [CD133-804], the “IFN-γ induced by PBMC stimulus for CTL generation, target CSC4” value (“IFN-γ induced … target CSC4” below) in assay [2] worked out at 450 pg/mL. For the same sequence, in the assay on T2 cells, the “IFN-γ induced by PBMC stimulus for CTL generation, target T2 + 117” value (“IFN-γ induced … target T2 + 117” for short) worked out at 275 pg/mL; the “IFN-γ induced by PBMC stimulus for CTL generation, target T2 + 301” value (from here on “IFN-γ induced … target T2 + 301”) was found to be 148 pg/mL; the “IFN-γ induced by PBMC stimulus for CTL generation, target T2 + 405” value (from here on “IFN-γ induced … target T2 + 405”) turned out to be 294 pg/mL; the “IFN-γ induced by PBMC stimulus for CTL generation, target T2 + 708” value (from here on “IFN-γ induced … target T2 + 708”) was 247 pg/mL. In the assay with T2 cells, the “IFN-γ induced by PBMC stimulus for CTL generation, target T2 + 804” value (from here on “IFN-γ induced … target T2 + 804”) amounted to 409 pg/mL and the “IFN-γ induced by PBMC stimulus for CTL generation, target T2 only” value (from here on “IFN-γ induced … target T2 only”) worked out at 211 pg/mL.

Consider LLFIILMPLV (Homo sapien) [CD133-117], for which, in assay [2], the “IFN-γ induced … target CSC4” value came to 262 pg/mL. Moreover, in the assay on T2 cells, the “IFN-γ induced … target T2 + 117” value was 322 pg/mL; the “IFN-γ induced … target T2 + 301” value amounted to 247 pg/mL; the “IFN-γ induced … target T2 + 405” value came to 262 pg/mL; the “IFN-γ induced … target T2 + 708” value is 192 pg/mL. In addition, in the assay with T2 cells, the “IFN-γ induced … target T2 + 804” value was 336 pg/mL and the “IFN-γ induced … target T2 only” value was determined as 275 pg/mL.

As to GLLERVTRI (Homo sapien) [CD133-708], the “IFN-γ induced … target CSC4” value in assay [2] is 403 pg/mL. In the assay with T2 cells, the “IFN-γ induced … target T2 + 117” value is 281 pg/mL; the “IFN-γ induced … target T2 + 301” value came to 234 pg/mL; the “IFN-γ induced … target T2 + 405” value came out at 326 pg/mL; the “IFN-γ induced … target T2 + 708” value amounted to 286 pg/mL. Besides, in the assay with T2 cells, the “IFN-γ induced … target T2 + 804” value is 258 pg/mL and the “IFN-γ induced … target T2 only” value amounted to 206 pg/mL.

With ILSAFSVYV (Homo sapien) [CD133-405], the “IFN-γ induced … target CSC4” value in assay [2] was found to be 2311 pg/mL. Besides, the “DC50 (time required for the loss of 50% of the HLA-A*0201/peptide complexes stabilized at t=0)” value in assay [3] (100 μM peptide) is listed as above 6 h. In addition, in assay [3] (listed as SEQ ID NO:1), the “Binding to HLA-A2 / HLA-A*0201 molecules (in words)” value is on record as “bound strongly”. Also, in assay [3] (listed as peptide 405), the “Binding to HLA-A2 / HLA-A*0201 molecules (in words)” value is “binds relatively strongly”. For the same sequence, in the assay on T2 cells, the “IFN-γ induced … target T2 + 117” value worked out at 334 pg/mL; the “IFN-γ induced … target T2 + 301” value is 311 pg/mL; the “IFN-γ induced … target T2 + 405” value was 2450 pg/mL; the “IFN-γ induced … target T2 + 708” value was found to be 394 pg/mL. In the assay with T2 cells, the “IFN-γ induced … target T2 + 804” value is 390 pg/mL and the “IFN-γ induced … target T2 only” value was 289 pg/mL. The sequence also came in with a Tetramer positive cell in assay [4] (CD8+ T cells stimulated by autologous DC pulsed with peptide, PE HLA-A*0201/peptide tetramer and anti-CD8-FITC) of 3.72%. Moreover, the “Immunogenicity (in words)” value in assay [4] (overall conclusion of Example 1) is “highly immunogenic”.

Regarding SLNDPLCLV (Homo sapien) [CD133-301], the “IFN-γ induced … target CSC4” value in assay [2] was 390 pg/mL. Besides, in the assay on T2 cells, the “IFN-γ induced … target T2 + 117” value was 174 pg/mL; the “IFN-γ induced … target T2 + 301” value was 165 pg/mL; the “IFN-γ induced … target T2 + 405” value was determined as 185 pg/mL; the “IFN-γ induced … target T2 + 708” value came to 214 pg/mL. Moreover, in the assay with T2 cells, the “IFN-γ induced … target T2 + 804” value was found to be 252 pg/mL and the “IFN-γ induced … target T2 only” value was 179 pg/mL.
